Assay results reported in patent publication US20060189675A1, “Crystalline form of a drug” (priority 2004, published 2006).
In brackets after ≈: the same amount, converted by molar mass.

Assay: Solubility of Atrasentan Hydrochloride Crystalline Forms in 1,4-dioxane
Type: physicochemical
Details: 25° C., n=3
Protocol: The solubility (in mg/mL) of Atrasentan Hydrochloride Crystalline Forms 1, 2 and 3 in 1,4-dioxane at 25° C.

| Compound | solubility in 1,4-dioxane [mg/mL] |
| --- | --- |
| CCCCN(CCCC)C(=O)CN1C[C@H](c2ccc3c(c2)OCO3)[C@@H](C(=O)O)[C@@H]1c1ccc(OC)cc1 [Form 1, (2R,3R,4S)-(+)-2-(4-methoxyphenyl)-4-(1,3-benzodioxol-5-yl)-1-(N,N-di(n-butyl)aminocarbonylmethyl)pyrrolidine-3-carboxylic acid] | 35.60 ± 1.82 (≈ 69.7 mM) |
| CCCCN(CCCC)C(=O)CN1C[C@H](c2ccc3c(c2)OCO3)[C@@H](C(=O)O)[C@@H]1c1ccc(OC)cc1 [Form 2, (2R,3R,4S)-(+)-2-(4-methoxyphenyl)-4-(1,3-benzodioxol-5-yl)-1-(N,N-di(n-butyl)aminocarbonylmethyl)pyrrolidine-3-carboxylic acid] | 16.66 ± 0.22 (≈ 32.6 mM) |
| CCCCN(CCCC)C(=O)CN1C[C@H](c2ccc3c(c2)OCO3)[C@@H](C(=O)O)[C@@H]1c1ccc(OC)cc1 [Form 3, (2R,3R,4S)-(+)-2-(4-methoxyphenyl)-4-(1,3-benzodioxol-5-yl)-1-(N,N-di(n-butyl)aminocarbonylmethyl)pyrrolidine-3-carboxylic acid] | 16.53 ± 0.22 (≈ 32.4 mM) |
